Some test systems named below: MDA-MB-435; M14; BT-549; RXF 393; HL-60; MDA-MB-231; NCI-H460; A549; HT-29; IGROV-1; OVCAR-5; SR; T47D; SF-268; NCI-H522; ACHN; SK-MEL-28.
What all share (assay): NCI tumour cell line growth inhibition, 48 h

This is an account of results in ChEMBL document CHEMBL1201862, “PubChem BioAssay data set” (2004).

The structures appear in SMILES notation.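 Compound exposure: 48 hours, 5 concentrations, 96-well plates. GI50 marks 50% less growth.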 Calls of active or inactive are those of the source. No stated cut-off is given here; in the data, active = GI50 up to about 1.1 µM and inactive = higher.

`CC1CCCC2(CC[N+](C)(CCC[N+](C)(C)C)CC2)C1` (centres undefined): the GI50 is > 100 µM (inactive) in the assay on MDA-MB-435; > 100 µM (inactive) with M14; > 100 µM (inactive) in the assay with BT-549; > 100 µM (inactive) in the assay with RXF 393; 5.48 µM (inactive) in the assay with HL-60; > 100 µM (inactive) with MDA-MB-231. The GI50 in the assay with NCI-H460, in the assay with A549, in the assay with HT-29, in the assay on IGROV-1, with OVCAR-5 and in the assay on SR was > 100 µM (inactive) each time. Moreover, the GI50 with T47D, with SF-268, with NCI-H522, with ACHN and in the assay with SK-MEL-28 was > 100 µM (inactive) each time.
Regarding `COc1cc(C2S/C(=C/c3ccccc3)C(=O)N2c2cc(Cl)c(Cl)cc2Cl)cc(OC)c1OC` (centres undefined), the GI50 in the assay on MDA-MB-435 was 34 µM (inactive); in the assay on M14, 37.5 µM (inactive); in the assay on BT-549, 23.7 µM (inactive); in the assay with RXF 393 it was > 100 µM (inactive); in the assay with HL-60 it was 20.4 µM (inactive); in the assay with MDA-MB-231, > 66.8 µM (inactive). The GI50 was 31.5 µM (inactive) in the assay with NCI-H460; 35.6 µM (inactive) in the assay on A549; 46.2 µM (inactive) with HT-29; 23.9 µM (inactive) with IGROV-1; 41.4 µM (inactive) in the assay on OVCAR-5; 25.3 µM (inactive) in the assay with SR. The GI50 was > 50.8 µM (inactive) in the assay on T47D; 29.6 µM (inactive) in the assay with SF-268; 16.9 µM (inactive) in the assay with NCI-H522; 35.6 µM (inactive) in the assay on ACHN; > 64 µM (inactive) with SK-MEL-28.
`CCN(CC)Cc1cc(/N=N\c2c(O)ccc3c(/N=N\c4ccc(O)c(CN(CC)CC)c4)c(O)ccc23)ccc1O`: the GI50 in the assay on MDA-MB-435 is 3.65 µM (inactive); in the assay with M14, 5.4 µM (inactive); in the assay with BT-549, 4.92 µM (inactive); in the assay with RXF 393, 2.94 µM (inactive); with HL-60 it was 1.8 µM (inactive); in the assay with MDA-MB-231, 2.05 µM (inactive). In addition, the GI50 is 1.91 µM (inactive) in the assay on NCI-H460; 2.42 µM (inactive) with A549; 2.57 µM (inactive) in the assay on HT-29; 2.99 µM (inactive) in the assay on IGROV-1; 6.49 µM (inactive) in the assay on OVCAR-5; 0.993 µM (active) in the assay with SR. Further, the GI50 in the assay with T47D is 10.3 µM (inactive); with SF-268 it was 4.56 µM (inactive); in the assay on NCI-H522, 2.31 µM (inactive); in the assay on ACHN, 2.49 µM (inactive); with SK-MEL-28, 5.96 µM (inactive).
`N#C/C=C(/NC(=O)Nc1ccccc1)N1CCCC1`: the GI50 is > 68.9 µM (inactive) in the assay on MDA-MB-435; > 49 µM (inactive) in the assay on M14; > 67.5 µM (inactive) with BT-549; > 100 µM (inactive) in the assay on RXF 393; > 100 µM (inactive) in the assay with HL-60; > 55.8 µM (inactive) in the assay with MDA-MB-231. Besides, the GI50 in the assay with NCI-H460 was > 37.5 µM (inactive); with A549, > 40.7 µM (inactive); with HT-29, > 72.6 µM (inactive); in the assay with IGROV-1 it was > 55.8 µM (inactive); in the assay with OVCAR-5, > 65.6 µM (inactive); with SR, > 100 µM (inactive). In addition, the GI50 was > 85.1 µM (inactive) in the assay with T47D; > 32.3 µM (inactive) with SF-268; > 47.4 µM (inactive) with NCI-H522; > 38.7 µM (inactive) in the assay on ACHN; > 47.9 µM (inactive) in the assay on SK-MEL-28.
With `O=C(c1ccccc1)c1ccc2[nH]c(-c3c(Cl)c(Cl)c(Cl)c(Cl)c3C(=O)Nc3ccco3)nc2c1`, the GI50 in the assay on MDA-MB-435 was 12.6 µM (inactive); in the assay with M14, 36.7 µM (inactive); in the assay with BT-549, 22.2 µM (inactive); in the assay with RXF 393, 41.8 µM (inactive); in the assay with HL-60 it was 24.2 µM (inactive); in the assay with MDA-MB-231, 34.4 µM (inactive). In addition, the GI50 was 33.5 µM (inactive) in the assay on NCI-H460; 26.5 µM (inactive) with A549; 28.4 µM (inactive) in the assay with HT-29; 41.1 µM (inactive) in the assay with IGROV-1; > 100 µM (inactive) in the assay on OVCAR-5; 12.6 µM (inactive) in the assay on SR. Moreover, the GI50 was 37 µM (inactive) with T47D; 27 µM (inactive) with SF-268; 25.7 µM (inactive) in the assay on NCI-H522; > 100 µM (inactive) with ACHN; 81.1 µM (inactive) with SK-MEL-28.
For `C[N+](C)(C)CC1CCCc2ccccc2C1=O` (centres undefined), the GI50 with MDA-MB-435 was 5.89 µM (inactive); in the assay on M14, 4.52 µM (inactive); in the assay on BT-549 it was 19.1 µM (inactive); in the assay on RXF 393, 6.28 µM (inactive); with HL-60 it was 1.89 µM (inactive); in the assay with MDA-MB-231, 16.3 µM (inactive). Also, the GI50 is 22.1 µM (inactive) in the assay with NCI-H460; 4.06 µM (inactive) in the assay on A549; 16.6 µM (inactive) in the assay on IGROV-1; 13.3 µM (inactive) in the assay on OVCAR-5; 1.64 µM (inactive) in the assay with SR; 1.73 µM (inactive) in the assay with T47D. The GI50 in the assay on SF-268 was 22 µM (inactive); in the assay on NCI-H522, 1.49 µM (inactive); in the assay with ACHN, 5.02 µM (inactive); with SK-MEL-28 it was 18.2 µM (inactive).
Consider `O=C1CSC(c2ccccc2O)N1c1ccc(-n2c(-c3ccccc3)nc3ccccc3c2=O)cc1` (centres undefined), for which the GI50 is 24.4 µM (inactive) with MDA-MB-435; 33.7 µM (inactive) in the assay on M14; 21.6 µM (inactive) with BT-549; 42.7 µM (inactive) in the assay on RXF 393; 21.6 µM (inactive) in the assay on HL-60; 4.76 µM (inactive) in the assay with MDA-MB-231. The GI50 is 14.8 µM (inactive) with NCI-H460; 38.4 µM (inactive) in the assay on A549; 27.1 µM (inactive) in the assay on HT-29; 25.5 µM (inactive) in the assay on IGROV-1; 30.8 µM (inactive) in the assay on OVCAR-5; 21.4 µM (inactive) in the assay on SR. The GI50 was 14.9 µM (inactive) with T47D; 50.1 µM (inactive) in the assay with SF-268; 19.9 µM (inactive) with NCI-H522; 19.7 µM (inactive) in the assay on ACHN; 28.4 µM (inactive) with SK-MEL-28.
On to `CCOC(=O)n1c(=O)nc2c3c(ncn21)Oc1c(c(-c2ccccc2)nn1-c1ccccc1)C3c1ccc(Cl)cc1` (centres undefined), for which the GI50 was 1.67 µM (inactive) in the assay with MDA-MB-435; 1.92 µM (inactive) in the assay with M14; 1.57 µM (inactive) with BT-549; 1.57 µM (inactive) with RXF 393; 1.26 µM (inactive) in the assay with HL-60; 1.4 µM (inactive) in the assay with MDA-MB-231. Besides, the GI50 is 1.68 µM (inactive) in the assay on NCI-H460; 1.65 µM (inactive) in the assay on A549; 1.75 µM (inactive) with HT-29; 2.1 µM (inactive) in the assay on OVCAR-5; 1.35 µM (inactive) in the assay with SR; 1.77 µM (inactive) in the assay with T47D. Moreover, the GI50 was 1.58 µM (inactive) in the assay with SF-268, 1.73 µM (inactive) in the assay with NCI-H522, 1.71 µM (inactive) in the assay on ACHN and 1.79 µM (inactive) in the assay with SK-MEL-28.
